Among the test systems are BY4741; YBR084C-A; YCL025C; YCR005C; YKL103C; YNL142W.
Common to all, as to assay: TORC1 pathway position of GFP reporter effects – S. cerevisiae, TORC1 bypass vs wild-type strains, mechanism study for yeast TOR pathway modulator project (AID 504479)
Settings in all cases: fluorescence ratio vs DMSO, at 10 µM

Setting [1] is: RPL19A-GFP in TORC1 bypass strain, stronger effect = lower value.
Where [2] appears, read: AGP1-GFP in TORC1 bypass strain, stronger effect = higher value.
The mark [3] stands for this setting: CIT2-GFP in TORC1 bypass strain, stronger effect = higher value.
The mark [4] stands for this setting: LAP4-GFP in TORC1 bypass strain, stronger effect = higher value.
Setting [5] is: MEP2-GFP in TORC1 bypass strain, stronger effect = higher value.

Activity calls are given as the source filed them.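 How the source made its calls: active means GFP ratio vs DMSO below 0.65 in a strain, using the primary screen cutoff set for that strain's protein target; inactive means the rest.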

For the compound `C/C(=N\NC(=O)c1ccc(C(C)(C)C)cc1)c1ccccn1`, the GFP ratio vs DMSO is 1.12 (inactive) with BY4741; 0.974 in the experiment on YBR084C-A (setting [1]); 1.03 (inactive) in the experiment on YBR084C-A; 0.884 in the experiment with YCL025C (setting [2]); 0.896 (inactive) in the experiment on YCL025C; 0.847 in the experiment with YCR005C (setting [3]). The GFP ratio vs DMSO in the experiment with YCR005C is 0.835 (inactive); in the experiment on YKL103C (setting [4]), 0.982; in the experiment on YKL103C, 1.13 (inactive); with YNL142W (setting [5]), 0.969; in the experiment on YNL142W, 0.804 (inactive).
For the compound `O=[N+]([O-])c1cc(S(=O)(=O)C(F)(F)F)ccc1Sc1nc2ccccc2s1`, the GFP ratio vs DMSO was 0.811 (inactive) with BY4741; 0.993 in the experiment on YBR084C-A (setting [1]); 0.985 (inactive) in the experiment on YBR084C-A; 0.722 in the experiment with YCL025C (setting [2]); 0.876 (inactive) in the experiment on YCL025C; 0.848 in the experiment on YCR005C (setting [3]). For the same compound, the GFP ratio vs DMSO in the experiment on YCR005C was 0.985 (inactive); with YKL103C (setting [4]), 1.22; in the experiment on YKL103C it was 1.71; in the experiment on YNL142W (setting [5]) it was 0.92; with YNL142W it was 0.887 (inactive).
In the case of `Cc1ccc(C2=NOC(=O)/C2=C\c2ccc(C)o2)cc1`, the GFP ratio vs DMSO in the experiment on BY4741 is 1.74 (inactive); with YBR084C-A (setting [1]), 0.949; in the experiment with YBR084C-A, 1.01 (inactive); with YCL025C (setting [2]), 0.701; in the experiment with YCL025C it was 0.907 (inactive); in the experiment with YCR005C (setting [3]) it was 1.1. The GFP ratio vs DMSO was 1.24 (inactive) with YCR005C; 0.971 in the experiment on YKL103C (setting [4]); 1.52 with YKL103C; 1.49 in the experiment with YNL142W (setting [5]); 1.24 (inactive) with YNL142W.
Turning to `CCCCC(=O)NNC(=S)NC(=O)c1ccc(C)cc1`, the GFP ratio vs DMSO was 1.56 (inactive) in the experiment on BY4741; 1.34 in the experiment on YBR084C-A (setting [1]); 1.27 (inactive) in the experiment with YBR084C-A; 0.974 with YCL025C (setting [2]); 1.1 (inactive) in the experiment on YCL025C; 0.942 in the experiment with YCR005C (setting [3]). Further, the GFP ratio vs DMSO with YCR005C is 1.17 (inactive); with YKL103C (setting [4]), 2.03; in the experiment on YKL103C, 3.37; in the experiment with YNL142W (setting [5]) it was 1.24; with YNL142W it was 1.22 (inactive).
Consider `CCOC(=O)c1c(C)oc2c1c(C(c1cccnc1)N1CCOCC1)c(O)c1ccccc12` (configuration not stated), for which the GFP ratio vs DMSO in the experiment with BY4741 was 1.09 (inactive); in the experiment on YBR084C-A (setting [1]), 1.1; in the experiment with YBR084C-A, 0.914 (inactive); in the experiment with YCL025C (setting [2]), 0.642; in the experiment on YCL025C, 0.972 (inactive); in the experiment with YCR005C (setting [3]), 0.839. In addition, the GFP ratio vs DMSO was 1.12 (inactive) in the experiment on YCR005C; 1.21 in the experiment with YKL103C (setting [4]); 2.09 in the experiment on YKL103C; 1.08 with YNL142W (setting [5]); 1.27 (inactive) with YNL142W.
Turning to `O=C(Oc1c(Cl)cc(Cl)c2cccnc12)c1cccc([N+](=O)[O-])c1`, the GFP ratio vs DMSO is 0.774 (inactive) in the experiment with BY4741; 1.12 in the experiment with YBR084C-A (setting [1]); 1.18 (inactive) in the experiment with YBR084C-A; 0.717 with YCL025C (setting [2]); 0.875 (inactive) with YCL025C; 0.791 with YCR005C (setting [3]). Moreover, the GFP ratio vs DMSO with YCR005C is 1.07 (inactive); in the experiment on YKL103C (setting [4]), 1.15; in the experiment with YKL103C, 1.68; in the experiment with YNL142W (setting [5]), 1.01; in the experiment with YNL142W, 0.95 (inactive).
Regarding `O=C(Oc1ccnc2cc(Cl)ccc12)N1CCCCCC1`, the GFP ratio vs DMSO with BY4741 was 1 (inactive); in the experiment on YBR084C-A (setting [1]) it was 0.82; in the experiment with YBR084C-A, 1.19 (inactive); in the experiment with YCL025C (setting [2]) it was 1.12; with YCL025C, 1.78; in the experiment with YCR005C (setting [3]), 0.708. The GFP ratio vs DMSO in the experiment on YCR005C was 0.635 (inactive); in the experiment with YKL103C (setting [4]) it was 0.997; in the experiment with YKL103C, 1.15 (inactive); in the experiment with YNL142W (setting [5]), 0.897; in the experiment on YNL142W, 1.96.
Take `CC(=O)c1ccc(N2CCN(C(=O)c3ccc(Br)cc3)CC2)c(F)c1`: the GFP ratio vs DMSO in the experiment with BY4741 was 1.18 (inactive); with YBR084C-A (setting [1]), 1.33; in the experiment with YBR084C-A, 1.28 (inactive); in the experiment on YCL025C (setting [2]) it was 1.42; in the experiment on YCL025C, 1.17 (inactive); in the experiment on YCR005C (setting [3]) it was 1.12. For the same compound, the GFP ratio vs DMSO in the experiment with YCR005C was 1.85; with YKL103C (setting [4]), 1.27; in the experiment with YKL103C, 1.94; with YNL142W (setting [5]), 1.25; with YNL142W, 1.3 (inactive).
On to `CC(C)(C)C(=O)C(Cl)C(=O)Nc1ccccc1` (configuration not stated), for which the GFP ratio vs DMSO is 0.941 (inactive) with BY4741; 0.997 in the experiment with YBR084C-A (setting [1]); 0.885 (inactive) in the experiment on YBR084C-A; 0.833 in the experiment with YCL025C (setting [2]); 1.2 (inactive) in the experiment with YCL025C; 1.58 with YCR005C (setting [3]). Also, the GFP ratio vs DMSO with YCR005C is 1.65; in the experiment with YKL103C (setting [4]), 1.5; in the experiment on YKL103C, 2.76; in the experiment with YNL142W (setting [5]), 0.969; with YNL142W, 1.24 (inactive).
On to `CN1CCN(C(c2ccc(C(F)(F)F)cc2)c2ccc3cccnc3c2O)CC1` (configuration not stated), for which the GFP ratio vs DMSO with BY4741 was 0.792 (inactive); in the experiment on YBR084C-A (setting [1]), 0.96; with YBR084C-A, 0.85 (inactive); in the experiment on YCL025C (setting [2]) it was 0.842; with YCL025C, 0.994 (inactive); in the experiment with YCR005C (setting [3]), 0.633. The GFP ratio vs DMSO in the experiment on YCR005C was 0.641 (inactive); in the experiment on YKL103C (setting [4]), 1.29; in the experiment with YKL103C it was 1.58; in the experiment with YNL142W (setting [5]), 0.978; in the experiment with YNL142W, 0.993 (inactive).
As for `COc1ccc(C(=O)NNC(=S)NC(=O)/C=C/c2cccs2)cc1`, the GFP ratio vs DMSO in the experiment on BY4741 is 1.24 (inactive); with YBR084C-A (setting [1]) it was 1.04; in the experiment with YBR084C-A, 1.27 (inactive); in the experiment with YCL025C (setting [2]), 0.916; in the experiment with YCL025C, 1.18 (inactive); in the experiment with YCR005C (setting [3]) it was 0.971. The GFP ratio vs DMSO in the experiment with YCR005C is 1.2 (inactive); in the experiment with YKL103C (setting [4]), 1.16; in the experiment with YKL103C it was 1.72; with YNL142W (setting [5]), 1; in the experiment on YNL142W it was 1.15 (inactive).
As for `CC(Oc1ccc(Cl)cc1)C(=O)NNC(=S)NC(=O)c1ccco1` (configuration not stated), the GFP ratio vs DMSO in the experiment with BY4741 is 1.44 (inactive); in the experiment on YBR084C-A (setting [1]), 1.25; in the experiment with YBR084C-A it was 1.15 (inactive); in the experiment with YCL025C (setting [2]) it was 0.847; in the experiment with YCL025C, 0.99 (inactive); with YCR005C (setting [3]), 0.788. In addition, the GFP ratio vs DMSO was 0.971 (inactive) in the experiment with YCR005C; 1.7 in the experiment on YKL103C (setting [4]); 2.67 in the experiment with YKL103C; 1.2 with YNL142W (setting [5]); 1.48 (inactive) in the experiment on YNL142W.
